These results are taken from ChEMBL document CHEMBL6182861, “Structural modification of heptamethine indocyanine dyes with improved aqueous solubility and stability for photothermal therapy” (Eur J Med Chem, 2025).

Active and inactive are the calls of the source. The rule behind the calls is not given here.

The test system of data set [1] is 4T1. Put plainly: Photothermal cytotoxicity against mouse 4T1 cells up to 25 uM preincubated for 4 hrs followed by exposure to laser irradiation of 808 nm for 2 mins and subsequent incubation for 20 hrs by MTT assay. The class given is functional, cell-based. (In general: Formazan colour is commonly taken as a measure of viable cells.)
Data set [2] can be described thus: Toxicity in female BALB/c mouse bearing mouse 4T1 cells assessed as damage in liver at 1.8 mg/kg, iv pretreated for 4 hrs followed by exposure to laser irradiation of 808 nm for 5 mins on every 2 days treated for 15 days by H and E staining based analysis. Particulars: in vivo, 360 h, time 15 day. The class given is organism-based.
A short description of data set [3]: Toxicity in ICR mouse bearing mouse H22 cells assessed as damage in heart at 1.8 mg/kg, iv pretreated for 4 hrs followed by exposure to laser irradiation of 808 nm for 5 mins on every 2 days treated for 15 days by H and E staining based analysis. In kind it is organism-based. Conditions: in vivo, 360 h, time 15 day.
The test system of data set [4] is 4T1. The data set can be described thus: Photothermal cytotoxicity against mouse 4T1 cells assessed as survival rate at 3.12 uM preincubated for 4 hrs followed by exposure to laser irradiation of 808 nm for 2 mins and subsequent incubation for 20 hrs by MTT assay relative to control. In kind it is functional. Particulars: 4T1, light or radiation study, 24.03 h, time 1442 min, read-out: Survival.

Data set [5] relates to Mitochondrial membrane. The data set can be described thus: Inhibition of mitochondrial membrane potential in mouse 4T1 cells assessed as green fluorescence at 3.12 uM preincubated for 4 hrs followed by exposure to laser irradiation of 808 nm for 2 mins and subsequent incubation for 20 hrs by JC-1 dye based analysis. The class given is cell membranes. Conditions: time 1442.0 min.

Data set [6] in a line: Biodistribution in liver of female BALB/c mouse bearing mouse 4T1 cells at 2.5 mg/kg, iv measured up to 12 hrs by fluorescence imaging analysis. In kind it is ADME, organism-based. Particulars: in vivo.
Data set [7] has as its system Mus musculus. The data set can be described thus: Photothermal effect in female BALB/c mouse bearing mouse 4T1 cells at approximately 50 degreeC at 2.5 mg/kg, iv pretreated for 4 hrs followed by exposure to laser irradiation of 808 nm for 5 mins. The class given is functional, organism-based. Conditions: time 245.0 min.
A short description of data set [8]: Toxicity in female BALB/c mouse bearing mouse 4T1 cells assessed as body weight at 2.5 mg/kg, iv pretreated for 4 hrs followed by exposure to laser irradiation of 808 nm for 5 mins on every 2 days treated for 15 days. In kind it is organism-based. Conditions: in vivo, 360 h, time 15 day.
Data set [9] has as its system 4T1. The data set can be described thus: Antitumor activity against mouse 4T1 cells implanted in female BALB/c mouse assessed as decrease in tumor size at 2.5 mg/kg, iv pretreated for 4 hrs followed by exposure to laser irradiation of 808 nm for 5 mins on every 2 days treated for 15 days. The class given is functional, organism-based. Conditions: time 15.0 day.
Data set [10] concerns 4T1. Put plainly: Antitumor activity against mouse 4T1 cells implanted in female BALB/c mouse assessed as loosely arranged cells at 2.5 mg/kg, iv pretreated for 4 hrs followed by exposure to laser irradiation of 808 nm for 5 mins on every 2 days treated for 15 days by H and E staining based analysis. The class given is functional, organism-based. Conditions: time 15.0 day.

The subject of data set [11] is H22. The data set can be described thus: Antitumor activity against mouse H22 cells implanted in female ICR mouse assessed as tumor growth inhibition at 2.5 mg/kg, iv pretreated for 4 hrs followed by exposure to laser irradiation of 808 nm for 5 mins on every 2 days treated for 15 days. The class given is functional, organism-based. Particulars: time 15.0 day.
Data set [12] is described as follows: Toxicity in female BALB/c mouse bearing mouse 4T1 cells assessed as damage in liver at 2.5 mg/kg, iv pretreated for 4 hrs followed by exposure to laser irradiation of 808 nm for 5 mins on every 2 days treated for 15 days by H and E staining based analysis. Conditions: in vivo, 360 h, time 15 day. The class given is organism-based.
Data set [13] is described as follows: Toxicity in female BALB/c mouse bearing mouse 4T1 cells assessed as damage in spleen at 2.5 mg/kg, iv pretreated for 4 hrs followed by exposure to laser irradiation of 808 nm for 5 mins on every 2 days treated for 15 days by H and E staining based analysis. The class given is organism-based. Particulars: in vivo, 360 h, time 15 day.
The nature of data set [14]: Toxicity in female BALB/c mouse bearing mouse 4T1 cells assessed as damage in kidney at 2.5 mg/kg, iv pretreated for 4 hrs followed by exposure to laser irradiation of 808 nm for 5 mins on every 2 days treated for 15 days by H and E staining based analysis. In kind it is organism-based. Particulars: in vivo, 360 h, time 15 day.

With `COC(=O)C(=C\C=C\C1=[N+](C)c2ccccc2C1(C)C)/C=C/C=C1/N(C)c2ccccc2C1(C)C.[I-]`, the values for the Activity entry in [1], in data set [2] and in [3] were “Not active; Limited Photo-Thermal Toxicity Was Observed”, “Non-toxic” and “Non-toxic”, respectively.

As for `COCCOCCOCCN1/C(=C/C=C/C(=C/C=C/C2=[N+](CCOCCOCCOC)c3ccccc3C2(C)C)C(=O)OC)C(C)(C)c2ccccc21.[I-]`, in data set [4], the viability at 3.12 µM is 36%. Also, the inhibition entry in data set [5] and in data set [11] was “Active” in each case. In [6], the Drug uptake result is given as “Active”. For the same compound, the Activity result in [7] is on record as “Active; Compound Exhibited Superior Effect Among Tested Compounds”; in [8], 18 g; in [12] it was “Non-toxic”; in data set [13], “Non-toxic”; in data set [14] it was “Non-toxic”. In addition, the result in data set [9] and in data set [10] was Active.
